According to paper PMC4436593, “Endoplasmic reticulum stress-independent activation of unfolded protein response kinases by a small molecule ATP-mimic” (eLife, 2015):

Legend:
HEK293T cells = experiment: HEK293T cell viability (CellTiter-Blue, 24 hr); type: cell-based; conditions: STS dose response + 1 μM GSK PERK inhibitor
Method: HEK293T cells were grown in DMEM (Sigma) complete media containing 10% FBS, 10 units/ml penicillin (Invitrogen), and 10 μg/ml streptomycin (Invitrogen). Cells were plated at a density of 30,000 cells per well in 96-well black plates with clear flat bottoms (Corning, Sigma-Aldrich) 24 hr before the experiment. A 12-point semi-logarithmic dilution series of compounds was made starting at 30 μM not to exceed 0.1% DMSO after final dilution into the growth media. Viability assays were conducted over the course of 24 hr. Cell viability was determined using CellTiter-Blue (Promega) following the manufacturer's instructions. […] Experiments were done in triplicate, and mean values were computed for each data point.

IRE1α-KR43 [1] = molecular target: T1, IRE1α-KR43 (Homo sapiens, UniProt O75460); experiment: IRE1α-KR43 RNA cleavage assay with 5′ [32P]-labeled RNA substrate HP21 (kobs, single turnover); type: biochemical; parameters: IRE1α-KR43 comprises the soluble cytoplasmic portion of IRE1α, composed of the kinase and RNase domains plus 43 amino acids of the linker; 6xHis (N, cleaved yes); made in house; host or cells: SF21 insect cells; conditions: for fold activation of IRE1α-KR43 RNase activity / IRE1α RNase activation (in words): compounds 1 μM, IRE1α-KR43 200 nM; for fold activation of IRE1α-KR43 RNase activity: [32P]-labeled HP21; for IRE1α RNase activation (in words): versus DMSO control or cmp6/cmp7
Method: To this end, we modified the molecule by substituting urea-linked and variably m- and p-substituted phenyl groups for the benzimidazole of APY29. Diphenyl urea linkers have previously been used successfully in the design of kinase inhibitors ([Dar et al., 2008]; [Dar and Shokat, 2011]; [Korennykh et al., 2012]). In exploring the addition of this chemotype on the APY29 scaffold, we generated a panel of 10 variants (Figure 1B). Each member of the panel was tested in an RNase activity assay using recombinant IRE1α-KR43 and a labeled short hairpin RNA substrate derived from human XBP1 mRNA. IRE1α-KR43 comprises the soluble cytoplasmic portion of IRE1α, composed of the kinase and RNase domains plus 43 amino acids of the linker that bridges the kinase to its transmembrane domain.
Human IRE1α-KR43 with a hexa-histidine (6xHis) tag in its N-terminus was expressed and purified in SF21 cells as described ([Li et al., 2010]). Cells were lysed in buffer containing 20 mM Tris-HCl, pH 7.5, 600 mM NaCl, 2 mM MgCl2, 3 mM imidazole, 10% glycerol, 1% Triton X-100, 3 mM β-mercaptoethanol, COMPlete protease inhibitors (Roche), and PhosSTOP phosphatase inhibitor cocktail (Roche) and passed through an AVESTIN emulsiflex-C3 3× times for complete lysis. The lysate was cleared using centrifugation at 100,000×g. Clear lysate was allowed to incubate on Ni-NTA agarose (Qiagen) beads for 2 hr before being washed 3× times with buffer containing 20 mM Tris-HCl, pH7.5, 600 mM NaCl, 2 mM MgCl2, 30 mM imidazole, 10% glycerol, and 3 mM β-mercaptoethanol. Protein was eluted from the column by raising the imidazole concentration to 250 mM. The eluate was then passed through a HiTrap desalting column (GE Healthcare). Lastly, the 6xHis was cleaved as described ([Li et al., 2010]) and the resulting protein was then loaded onto a HisTrap HP, 5 × 5 ml column to remove the uncleaved protein. The cleaved protein was then loaded on a Mono-S 5/50 GL column (GE Healthcare), and the eluate was then concentrated to 5 mg/ml and loaded on a Superdex 200 HR 10/300 (GE Healthare) column in buffer containing 20 mM Tris-HCl pH 7.5, 250 mM NaCl, 5% Glycerol and 5 mM tris(2-carboxyethyl)phosphine (TCEP). The pure protein solution was aliquoted and stored at −80°C.

[2] = tested on: IRE1α-GFP in T-REx293 cells; experiment: IRE1-GFP foci formation in T-REx293 cells (confocal microscopy); type: cell-based; conditions: doxycycline-induced IRE1α-GFP
Source text: We next used a T-REx293 cell line, containing a genome-integrated doxycycline-inducible IRE1α-GFP fusion gene, to monitor IRE1α oligomerization in vivo ([Li et al., 2010]). In the presence of doxycycline, IRE1α-GFP was expressed and localized to the ER (Figure 2D). […] Furthermore, the foci dissolved by 8 hr of treatment as cells attenuated IRE1α signaling even in the presence of unmitigated ER stress (Figure 2D, upper panels) ([Li et al., 2010]). […] While Tm-induced foci became larger and fewer over time as previously observed, IPA-induced foci remained small and numerous.
T-REx293 cells were split 2 days before imaging onto glass-bottom micro-well dishes (MatTek) at 5 × 10^4 cells/dish. Doxycyclin-containing medium (10 nM doxycycline) was added for 24 hr, withdrawn before imaging and replaced with imaging media (Hank's Balanced Salt Solution [Gibco], 2% FBS, and 5 mM HEPES pH 7.0). Images were acquired on a spinning-disk confocal microscope as described ([Li et al., 2010]).

[3] = tested on: ATF6 transcriptional targets HERPUD1 (HERP1) and DERLIN3 (DERL3); experiment: ATF6 target mRNAs HERP1 and DERL3 by RT-PCR in HEK293T cells; type: cell-based; conditions: IPA 1 μM and 4 μM, Tm
Source text: To assess the effects of IPA on the activity of the two other UPR branches, we first examined activation of ATF6. To this end, we monitored mRNA levels by RT-PCR for two ATF6-driven transcriptional target genes, HERP1 and DERL3, in HEK293T cells.
Cells were lysed and total RNA was collected (Total RNA Kit 1, EZ-RNA, EZNA [USA]). PolyA^+ mRNA was reverse transcribed with M-MLV (Invitrogen), and the resulting cDNA was used as a template for PCR amplification across the fragment of XBP1 cDNA containing the intron. Primers used to amplify human XBP1: 5′-[…]-3′ and 5′-[…]-3′. To amplify murine XBP1: 5′-[…]-3′ and 5′-[…]-3′. PCR conditions were as follows: 95°C for 5 min, 95°C for 1 min, 58°C for 30 s, 72°C for 30 s, and 72°C for 5 min, with 20 cycles of amplification. PCR products were resolved on a 2.5% agarose tris-acetate EDTA (TAE) gel. As previously reported, a hybrid amplicon species consisting of unspliced Xbp-1 annealed to spliced Xbp-1 can also be produced through this PCR reaction and was visible as a slower migrating band above the unspliced amplicon. The same cDNA was used as template for PCR of DERLIN-3 and HERPUD1, both ATF6 targets, and GAPDH, which was used as loading control. Primers used included the following: DERLIN-3, 5′-[…]-3′ and 5′-[…]-3′; HERPUD1-1, 5′-[…]-3′ and 5′-[…]-3′; GAPDH, 5′-[…]-3′ and 5′-[…]-3′. […]

IRE1α-KR43 [4] = molecular target: T1, IRE1α-KR43; experiment: FRET-based RNA cleavage assay (fluorescent HP17 substrate) of IRE1α-KR43 RNase activity
[5] = molecular target: T2, GST-PERK kinase domain (580–1077 aa) (Mus musculus, UniProt Q9Z2B5); experiment: In vitro GST-PERK kinase assay (eIF2α phosphorylation with γ-[32P]-ATP)
T2 sequence (Q9Z2B5 580-1077): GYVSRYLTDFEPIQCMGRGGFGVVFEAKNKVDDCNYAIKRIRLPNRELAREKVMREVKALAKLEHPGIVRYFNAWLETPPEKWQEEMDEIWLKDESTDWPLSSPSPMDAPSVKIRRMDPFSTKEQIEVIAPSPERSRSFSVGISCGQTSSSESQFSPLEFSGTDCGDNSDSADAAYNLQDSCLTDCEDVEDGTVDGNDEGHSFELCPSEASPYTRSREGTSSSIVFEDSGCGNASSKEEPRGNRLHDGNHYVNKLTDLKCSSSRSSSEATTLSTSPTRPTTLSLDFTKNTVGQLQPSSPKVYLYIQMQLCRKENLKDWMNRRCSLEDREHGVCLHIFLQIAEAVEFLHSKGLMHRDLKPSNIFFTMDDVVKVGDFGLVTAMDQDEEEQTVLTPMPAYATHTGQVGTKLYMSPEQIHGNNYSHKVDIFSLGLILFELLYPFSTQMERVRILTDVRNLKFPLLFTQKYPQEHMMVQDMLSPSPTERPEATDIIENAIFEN

[6] = molecular target: the molecule itself; experiment: cell-based or functional assay
[7] = molecular target: the molecule itself; experiment: SEC; GST-PERK purified on GST-Sepharose and Superdex 200 10/300 gel filtration in buffer B (50 mM Tris pH 7.5, 50 mM NaCl, 5 mM MgCl2, 3 mM DTT, 1% glycerol); the paper does not say how the dimer was determined
[8] = compound 20 μM, RNase activity as a function of IRE1α-KR43 concentration

T1 sequence (O75460 465-977 limits assumed): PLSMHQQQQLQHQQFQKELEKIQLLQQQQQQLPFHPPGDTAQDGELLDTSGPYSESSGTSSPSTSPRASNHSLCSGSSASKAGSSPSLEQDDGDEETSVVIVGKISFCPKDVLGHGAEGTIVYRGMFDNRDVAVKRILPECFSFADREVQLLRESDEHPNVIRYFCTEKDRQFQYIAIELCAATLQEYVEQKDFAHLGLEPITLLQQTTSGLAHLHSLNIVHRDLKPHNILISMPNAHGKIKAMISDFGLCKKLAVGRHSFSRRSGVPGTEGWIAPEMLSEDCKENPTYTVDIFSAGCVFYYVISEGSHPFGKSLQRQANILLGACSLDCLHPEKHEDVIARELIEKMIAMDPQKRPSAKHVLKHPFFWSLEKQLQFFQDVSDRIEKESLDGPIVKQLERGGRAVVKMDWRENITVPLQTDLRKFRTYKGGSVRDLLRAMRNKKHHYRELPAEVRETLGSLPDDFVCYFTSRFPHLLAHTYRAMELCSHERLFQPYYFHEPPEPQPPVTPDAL

Molecule: CN[C@@H]1C[C@H]2O[C@@](C)([C@@H]1OC)n1c3ccccc3c3c4c(c5c6ccccc6n2c5c31)C(=O)NC4 [STS, staurosporine, reference compound]
- change of cell viability dose response in the presence of 1 μM GSK (HEK293T cells): No change in cell viability was observed

Molecule: Cc1ccc(NC(=O)Nc2ccc(Nc3nccc(Nc4cc(C5CC5)[nH]n4)n3)cc2)cc1 [cmp2]
- fold activation of IRE1α-KR43 RNase activity (IRE1α-KR43 [1]): 10–100 fold

Molecule: O=C(Nc1ccc(Br)cc1)Nc1ccc(Nc2nccc(Nc3cc(C4CC4)[nH]n3)n2)cc1 [cmp8]
- IRE1α RNase activation (in words) (IRE1α-KR43 [1]): decreased activities

Molecule: tunicamycin [Tm, reference compound]
- IRE1α-GFP foci formation [2]: rapidly induced the relocalization of IRE1α-GFP into discrete foci
- induction of ATF6 target genes HERP1 and DERL3 [3]: induced the expression of these two genes

Molecule: c1cc(Nc2cc(C3CC3)[nH]n2)nc(Nc2ccc3[nH]cnc3c2)n1 [APY29, reference compound]
- EC50 (IRE1α-KR43 [4]): 5200 nM
- IC50 [5]: 690 nM
- fold activation of IRE1α-KR43 RNase activity (IRE1α-KR43 [1]): fivefold

Molecule: CCc1ccc(NC(=O)Nc2ccc(Nc3nccc(Nc4cc(C5CC5)[nH]n4)n3)cc2)cc1 [cmp3]
- fold activation of IRE1α-KR43 RNase activity (IRE1α-KR43 [1]): 10–100 fold

Molecule: CC(C)(C)c1ccc(NC(=O)Nc2ccc(Nc3nccc(Nc4cc(C5CC5)[nH]n4)n3)cc2)cc1 [cmp10]
- IRE1α RNase activation (in words) (IRE1α-KR43 [1]): decreased activities

Molecule: O=C(Nc1ccc(Nc2nccc(Nc3cc(C4CC4)[nH]n3)n2)cc1)Nc1cccc(C(F)(F)F)c1 [cmp1]
- EC50 (IRE1α-KR43 [4]): 950 nM
- IC50 [5]: 4500 nM
- fold lower enzyme concentration at ½ kmax, obs versus no activator (IRE1α-KR43 [1]; compound 20 μM): 3 fold
- 1/2kmax, obs (IRE1α-KR43 concentration at half-maximal kobs) (IRE1α-KR43 [1]; [8]): 3 µM
- Hill coefficient n (IRE1α-KR43 [1]; [8]): 3.8
- fold activation of IRE1α-KR43 RNase activity (IRE1α-KR43 [1]): 10–100 fold

Molecule: COc1cccc(NC(=O)Nc2ccc(Nc3nccc(Nc4cc(C5CC5)[nH]n4)n3)cc2)c1 [cmp4]
- fold activation of IRE1α-KR43 RNase activity (IRE1α-KR43 [1]): 10–100 fold

Molecule: O=C(Nc1ccc(I)cc1)Nc1ccc(Nc2nccc(Nc3cc(C4CC4)[nH]n3)n2)cc1 [cmp7]
- fold activation of IRE1α-KR43 RNase activity (IRE1α-KR43 [1]): 900 fold

Molecule: CC(C)c1ccc(NC(=O)Nc2ccc(Nc3nccc(Nc4cc(C5CC5)[nH]n4)n3)cc2)cc1 [cmp9]
- IRE1α RNase activation (in words) (IRE1α-KR43 [1]): decreased activities

Molecule: COc1ccc(NC(=O)Nc2ccc(Nc3nccc(Nc4cc(C5CC5)[nH]n4)n3)cc2)cc1 [cmp5]
- fold activation of IRE1α-KR43 RNase activity (IRE1α-KR43 [1]): 10–100 fold

B1: PERK cytosolic domain (535–1093 Δ660–868) (domain or fragment, human, UniProt Q9NZJ5 535-1093, looked up)
chain: ATTFIVRRLFHPHPHRQRKESETQCQTENKYDSVSGEANDSSWNDIKNSGYISRYLTDFEPIQCLGRGGFGVVFEAKNKVDDCNYAIKRIRLPNRELAREKVMREVKALAKLEHPGIVRYFNAWLKNTTEKLQPSSPKVYLYIQMQLCRKENLKDWMNGRCTIEERERSVCLHIFLQIAEAVEFLHSKGLMHRDLKPSNIFFTMDDVVKVGDFGLVTAMDQDEEEQTVLTPMPAYARHTGQVGTKLYMSPEQIHGNSYSHKVDIFSLGLILFELLYPFSTQMERVRTLTDVRNLKFPPLFTQKYPCEYVMVQDMLSPSPMERPEAINIIENAVFEDLDFPGKTVLRQRSR
- rate of eIF2α phosphorylation by the PERK cytoplasmic domain against IPA concentration, fold change normalised to DMSO control; greatest activation at 500 nM IPA [6]: 3.3 fold

B2: GST-PERK kinase domain (580–1077 aa) (domain or fragment, murine, UniProt Q9Z2B5 580-1077, looked up)
chain: GYVSRYLTDFEPIQCMGRGGFGVVFEAKNKVDDCNYAIKRIRLPNRELAREKVMREVKALAKLEHPGIVRYFNAWLETPPEKWQEEMDEIWLKDESTDWPLSSPSPMDAPSVKIRRMDPFSTKEQIEVIAPSPERSRSFSVGISCGQTSSSESQFSPLEFSGTDCGDNSDSADAAYNLQDSCLTDCEDVEDGTVDGNDEGHSFELCPSEASPYTRSREGTSSSIVFEDSGCGNASSKEEPRGNRLHDGNHYVNKLTDLKCSSSRSSSEATTLSTSPTRPTTLSLDFTKNTVGQLQPSSPKVYLYIQMQLCRKENLKDWMNRRCSLEDREHGVCLHIFLQIAEAVEFLHSKGLMHRDLKPSNIFFTMDDVVKVGDFGLVTAMDQDEEEQTVLTPMPAYATHTGQVGTKLYMSPEQIHGNNYSHKVDIFSLGLILFELLYPFSTQMERVRILTDVRNLKFPLLFTQKYPQEHMMVQDMLSPSPTERPEATDIIENAIFEN
notes: PERK, murine, cytosolic kinase domain, residues 580–1077; The dimer may therefore be held by GST; also called PERK-GST fusion protein; GST-PERK fusion protein; source: E. coli BL21DE3 RIPL, purified (GST-Sepharose, Superdex 200 10/300); not shown: GST, N-terminal, kept
- stoichiometry N [7]: 2
